# ChEMBL document CHEMBL5537154, “Smart glypican-3-targeting peptide-chlorin e6 conjugates for targeted photodynamic therapy of hepatocellular carcinoma” (Eur J Med Chem, 2024)
# Calls of active or inactive are those of the source. No cut-off for these calls is given here.
# Tests used:
# HepG2 [1] = experiment: Antiproliferative activity against human HepG2 cells under dark condition by CCK8 assay; type: functional, cell-based
# HepG2 [2] = experiment: Antiproliferative activity against human HepG2 cells under 10 J/cm2 light irradiation at 660 nm by CCK8 assay; type: functional, cell-based; details: HepG2, light or radiation study
# Huh-7 [3] = experiment: Antiproliferative activity against human Huh-7 cells under dark condition by CCK8 assay; type: functional, cell-based
# Huh-7 [4] = experiment: Antiproliferative activity against human Huh-7 cells under 10 J/cm2 light irradiation at 660 nm by CCK8 assay; type: functional, cell-based; details: Huh-7, light or radiation study
# MCF7 [5] = experiment: Antiproliferative activity against human MCF7 cells under dark condition by CCK8 assay; type: functional, cell-based
# MCF7 [6] = experiment: Antiproliferative activity against human MCF7 cells under 10 J/cm2 light irradiation at 660 nm by CCK8 assay; type: functional, cell-based; details: MCF7, light or radiation study
# HeLa [7] = experiment: Antiproliferative activity against human HeLa cells under dark condition by CCK8 assay; type: functional, cell-based
# HeLa [8] = experiment: Antiproliferative activity against human HeLa cells under 10 J/cm2 light irradiation at 660 nm by CCK8 assay; type: functional, cell-based; details: light or radiation study
# [9] = Antiproliferative activity against human HUVEC cells under dark condition by CCK8 assay; type: toxicity, cell-based
# [10] = Antiproliferative activity against human HUVEC cells under 10 J/cm2 light irradiation at 660 nm by CCK8 assay; type: toxicity, cell-based
# Glypican-3 = Glypican-3 (Homo sapiens, UniProt P51654); experiment: Binding affinity to GPC3 (unknown origin) assessed as dissociation constant by fluorescence polarization assay
# [11] = Aggregation property of compound in PBS; type: physicochemical; details: buffer
# [12] = […] assessed as decrease in fluorescence intensity of DMA; type: functional
# [13] = Drug uptake in human MCF7 cells incubated for 2 hrs by fluorescence based assay; type: ADME, cell-based; details: mcf7, 2 h
# [14] = Drug uptake in human HUVEC cells at 500 nM incubated for 0.5 hrs by flow cytometry; type: ADME, cell-based; details: 0.5 µM
# HepG2 [15] = experiment: Induction of ROS generation in human HepG2 cells at 10 uM incubated for 24 hrs by DCFH-DA probe based flow cytometry; type: functional, cell-based
# HepG2 [16] = experiment: Induction of ROS generation in human HepG2 cells at 10 uM preincubated for 24 hrs followed by DCFH-DA probe addition and further incubated under dark condition for 20 mins prior and 20 mins post- light irradiation of 10 J/cm2 at 660 nm by flow cytometry; type: functional, cell-based; details: time 24.66 hrs
# [17] = Drug distribution in tumor of BALB/C nude mouse model xenografted with human HepG2 cells at 1 to 2 uM/kg, iv measured for 1 to 4 hrs by fluorescence imaging analysis; type: ADME, organism-based, Neoplasm; details: in vivo, dose lower 1 µM/Kg, time lower 1 hrs, dose upper 2 µM/Kg, time upper 4 hrs
# [18] = Drug distribution in BALB/C nude mouse model xenografted with human HepG2 cells at 1 to 2 uM/kg, iv measured after 1 hr by fluorescence imaging analysis; type: ADME, organism-based; details: in vivo, dose 1-2 µM/Kg
# [19] = Drug distribution in tumor of BALB/C nude mouse model xenografted with human HepG2 cells at 1 to 2 uM/kg, iv measured after 2 hrs by fluorescence imaging analysis; type: ADME, organism-based, Neoplasm; details: in vivo, dose 1-2 µM/Kg
# HepG2 [20] = experiment: Antitumor activity in human HepG2 cells xenografted in BALB/C nude mouse model assessed as tumor growth inhibition at 1 uM/kg, iv administered every two days for 21 days along with 250 mW/cm2 light irradiation at 660 nm for 10 mins at 1 hr post-compound administration relative to control; type: functional; details: time 505.166 hrs, 505.17 h, at 1 µmol/kg
# [21] = Toxicity in BALB/C nude mouse model xenografted with human HepG2 cells assessed as drug tolerance at 1 uM/kg, iv administered every two days for 21 days along with 250 mW/cm2 light irradiation at 660 nm for 10 mins at 1 hr post-compound administration; type: organism-based; details: in vivo, 505.17 h, time 505.166 hrs
# [22] = Toxicity in BALB/C nude mouse model xenografted with human HepG2 cells assessed as body weight loss at 1 uM/kg, iv administered every two days for 21 days along with 250 mW/cm2 light irradiation at 660 nm for 10 mins at 1 hr post-compound administration; type: organism-based; details: in vivo, 505.17 h, time 505.166 hrs
# [23] = Toxicity in BALB/C nude mouse model xenografted with human HepG2 cells assessed as change in heart weight at 1 uM/kg, iv administered every two days for 21 days along with 250 mW/cm2 light irradiation at 660 nm for 10 mins at 1 hr post-compound administration; type: organism-based; details: in vivo, 505.17 h, time 505.166 hrs
# [24] = Toxicity in BALB/C nude mouse model xenografted with human HepG2 cells assessed as change in liver weight at 1 uM/kg, iv administered every two days for 21 days along with 250 mW/cm2 light irradiation at 660 nm for 10 mins at 1 hr post-compound administration; type: organism-based; details: in vivo, 505.17 h, time 505.166 hrs
# [25] = Toxicity in BALB/C nude mouse model xenografted with human HepG2 cells assessed as change in spleen weight at 1 uM/kg, iv administered every two days for 21 days along with 250 mW/cm2 light irradiation at 660 nm for 10 mins at 1 hr post-compound administration; type: organism-based; details: in vivo, 505.17 h, time 505.166 hrs
# [26] = Toxicity in BALB/C nude mouse model xenografted with human HepG2 cells assessed as change in lung weight at 1 uM/kg, iv administered every two days for 21 days along with 250 mW/cm2 light irradiation at 660 nm for 10 mins at 1 hr post-compound administration; type: organism-based; details: in vivo, 505.17 h, time 505.166 hrs
# [27] = Toxicity in BALB/C nude mouse model xenografted with human HepG2 cells assessed as change in kidney weight at 1 uM/kg, iv administered every two days for 21 days along with 250 mW/cm2 light irradiation at 660 nm for 10 mins at 1 hr post-compound administration; type: organism-based; details: in vivo, 505.17 h, time 505.166 hrs
# [28] = Toxicity in BALB/C nude mouse model xenografted with human HepG2 cells assessed as damage in heart at 1 uM/kg, iv administered every two days for 21 days along with 250 mW/cm2 light irradiation at 660 nm for 10 mins at 1 hr post-compound administration by H and E staining based analysis; type: organism-based; details: in vivo, 505.17 h, time 505.166 hrs
# [29] = Toxicity in BALB/C nude mouse model xenografted with human HepG2 cells assessed as damage in liver at 1 uM/kg, iv administered every two days for 21 days along with 250 mW/cm2 light irradiation at 660 nm for 10 mins at 1 hr post-compound administration by H and E staining based analysis; type: organism-based; details: in vivo, 505.17 h, time 505.166 hrs
# [30] = Toxicity in BALB/C nude mouse model xenografted with human HepG2 cells assessed as damage in spleen at 1 uM/kg, iv administered every two days for 21 days along with 250 mW/cm2 light irradiation at 660 nm for 10 mins at 1 hr post-compound administration by H and E staining based analysis; type: organism-based; details: in vivo, 505.17 h, time 505.166 hrs
# [31] = Toxicity in BALB/C nude mouse model xenografted with human HepG2 cells assessed as damage in lung at 1 uM/kg, iv administered every two days for 21 days along with 250 mW/cm2 light irradiation at 660 nm for 10 mins at 1 hr post-compound administration by H and E staining based analysis; type: organism-based; details: in vivo, 505.17 h, time 505.166 hrs
# [32] = Toxicity in BALB/C nude mouse model xenografted with human HepG2 cells assessed as damage in kidney at 1 uM/kg, iv administered every two days for 21 days along with 250 mW/cm2 light irradiation at 660 nm for 10 mins at 1 hr post-compound administration by H and E staining based analysis; type: organism-based; details: in vivo, 505.17 h, time 505.166 hrs
# MCF7 [33] = experiment: Antitumor activity against human MCF7 cells xenografted in BALB/C nude mouse model assessed as decrease in tumor growth at 1 uM/kg, iv administered every two days for 21 days along with 250 mW/cm2 light irradiation at 660 nm for 10 mins at 1 hr post-compound administration; type: functional, organism-based; details: time 505.166 hrs
# Sequence of Glypican-3 (P51654 25-358 limits assumed): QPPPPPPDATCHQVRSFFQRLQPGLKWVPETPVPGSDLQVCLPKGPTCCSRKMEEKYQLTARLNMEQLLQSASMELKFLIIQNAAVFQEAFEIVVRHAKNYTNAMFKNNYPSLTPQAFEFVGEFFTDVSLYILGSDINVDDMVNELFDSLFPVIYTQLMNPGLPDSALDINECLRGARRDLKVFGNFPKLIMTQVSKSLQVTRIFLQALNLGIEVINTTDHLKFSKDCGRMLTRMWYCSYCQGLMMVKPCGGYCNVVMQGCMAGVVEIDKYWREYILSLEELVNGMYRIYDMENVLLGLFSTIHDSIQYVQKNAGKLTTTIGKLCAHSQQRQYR
# Sequence of Glypican-3 (P51654 359-554 limits assumed): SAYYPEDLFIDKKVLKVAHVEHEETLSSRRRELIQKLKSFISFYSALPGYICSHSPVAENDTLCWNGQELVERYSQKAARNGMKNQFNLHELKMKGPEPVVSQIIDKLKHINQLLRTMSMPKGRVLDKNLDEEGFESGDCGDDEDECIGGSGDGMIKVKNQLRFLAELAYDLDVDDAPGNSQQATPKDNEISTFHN
structure (smiles),measurement,setting,value
C=Cc1c(C)c2cc3nc(c(CC(=O)O)c4[nH]c(cc5nc(cc1[nH]2)C(C)=C5CC)c(C)c4C(=O)O)[C@@H](CCC(=O)O)[C@@H]3C [CHLORIN E6],IC50,HepG2 [1],> 100 µM
same,IC50,HepG2 [2],16 µM
same,IC50,Huh-7 [3],> 100 µM
same,IC50,Huh-7 [4],18 µM
same,IC50,MCF7 [5],> 100 µM
same,IC50,MCF7 [6],> 10 µM
same,IC50,HeLa [7],> 100 µM
same,IC50,HeLa [8],> 10 µM
same,IC50,[9],> 200 µM
same,IC50,[10],> 10 µM
same,Kd,Glypican-3,> 10 µM
same,Activity,[11],Active
same,Activity,[12],Active
same,Drug uptake,[13],Active
same,Drug uptake,[14],Active
same,Activity,HepG2 [15],inactive
same,Activity,HepG2 [16],Active
same,Drug uptake,[17],Active
same,Drug uptake,[18],Active
same,Drug uptake,[19],Not Active
same,TGI,HepG2 [20],71.3%
same,Activity,[21],Non-Toxic
same,Activity,[22],Non-Toxic
same,Activity,[23],Non-Toxic
same,Activity,[24],Non-Toxic
same,Activity,[25],Non-Toxic
same,Activity,[26],Non-Toxic
same,Activity,[27],Non-Toxic
same,Activity,[28],Non-Toxic
same,Activity,[29],Non-Toxic
same,Activity,[30],Non-Toxic
same,Activity,[31],Non-Toxic
same,Activity,[32],Non-Toxic
same,Activity,MCF7 [33],Active
